Experimental data taken from patent US20200190062A1, “HETEROCYCLIC COMPOUND AND PHARMACEUTICAL COMPOSITION COMPRISING SAME” (BEYONDBIO INC., priority 2015, published 2020).
Where a name gives a salt, the structure may show the parent alone.

How the values were obtained:
Assay in all cases: Inhibition of cancer cell proliferation (MTT)
Assay type in all cases: cell-based, human
[1] = tested on: A549
Description: (§1) A test was conducted to confirm whether the compounds obtained in the above Examples can inhibit proliferation of human colon carcinoma cell line HCT116, glioblastoma cell lines U-87MG and T98G, neuroblastoma cell lines SH-SYSY and SK-N-SH, and lung cancer cell lines A549 and NCI-H23.
(§2) HCT116, U-87MG, SH-SYSY, SK-N-SH and A549 cells were culured in DMEM medium containing 10% FBS. T98G cells were cultured in MEM medium containing 10% FBS and NCI-H23 cells were cultured in […] medium containing 10% FBS. In order to analyze an inhibition of proliferation, HCT116 cells were dispensed in 2000 cells/well into 96 well plate, and SH-SYSY, SK-N-SH, U-87MG, T98G, A549, and NCI-H23 cells were dispensed in 3000 cells/well into 96 well plate. And then, the cells were cultured at 5% CO2 and 37° C. for 16 hrs to allow the cells to attach to the wells. The compounds of the above Examples were added to each well at a concentration of 0.004, 0.013, 0.04, 0.12, 0.37, 1.1, 3.3, and 10 uM, and the culture volume was adjusted to 100 ul. A control group was treated with dimethylsulfoxide (DMSO) at the same concentration, 0.08%, as used to treat the test compounds. Afterwards, cells were cultured at 5% CO2 and 37° C. for 72 hrs. And then, 10 ul of the solution of MTT (3-(4,5-dimethylthiazol-2-yl)-2,5-diphenyltetrazolium bromide) dissolved in PBS at 5 mg/ml was added to each well to identify viable cells and the cells were cultured for further 2 hrs. The culture solution was removed, 100 ul of DMSO was added to dissolve the formed formazan and then an absorbance was measured at 535 nm. Based on the absorbance of the control cells not treated with the compounds, the amounts of the viable cells according to the concentration of the compounds were calculated. GI50 (growth inhibition 50) value which is the concentration of the compound to inhibit cancer cell proliferation by 50% was calculated using Graphpad Prism 5.0 program.

[2] = tested on: HCT116
Description: as §1, §2

[3] = tested on: NCI-H23
Description: as §1, §2

[4] = tested on: T98G
Description: as §1, §2

[5] = tested on: U-87MG
Description: as §1, §2

GI50 ([1]; Homo sapiens, A549, 72 h) [µM] | GI50 ([2]; Homo sapiens, HCT-116, 72 h) [µM] | GI50 ([3]; Homo sapiens, NCI-H23, 72 h) [µM] | GI50 ([4]; Homo sapiens, T98G, 72 h) [µM] | GI50 ([5]; Homo sapiens, U-87 MG, 72 h) [µM] | GI50 ([1]; 72 hrs) [µM] | GI50 ([2]; 72 hrs) [µM] | GI50 ([3]; 72 hrs) [µM] | GI50 ([4]; 72 hrs) [µM] | GI50 ([5]; 72 hrs) [µM] | SMILES
0.02 | 0.01 | 0.06 | 0.21 | 0.03 | – | – | – | – | – | CCN1CCC(c2cc(-c3nc(-c4ccnc(N)c4F)ccc3O)nc(N)n2)CC1 [Example 35, 2′-amino-6-(2-amino-6-(1-ethylpiperidin-4-yl)pyrimidin-4-yl)-3′-fluoro-[2,4′-bipyridin]-5-ol]
– | – | – | – | – | 0.16 | 0.11 | 0.29 | 0.16 | 0.12 | Cc1c(-c2nc(-c3ccnc(N)c3F)ccc2O)nc(N)nc1C1CCCN(C)C1 (stereo not shown) [Example 97]
– | – | – | – | – | 0.4 | 0.17 | 1.79 | 0.69 | 0.39 | CCN1CCCC(c2cc(-c3nc(-c4ccnc(N)c4F)ccc3O)nc(N)n2)C1 (stereo not shown) [Example 39, 2′-amino-6-(2-amino-6-(1-ethylpiperidin-3-yl)pyrimidin-4-yl)-3′-fluoro-[2,4′-bipyridin]-5-ol]
– | – | – | – | – | 0.02 | 0.01 | 0.05 | 0.19 | 0.03 | CCN1CCC(c2cc(-c3nc(-c4ccnc(N)c4F)ccc3O)nc(N)n2)CC1 [Example 86, 2′-amino-6-(2-amino-6-(1-ethylpiperidin-4-yl)pyrimidin-4-yl)-3′-fluoro-[2,4′-bipyridin]-5-ol 4hydrochloride]
– | – | – | – | – | 0.04 | 0.01 | 0.03 | 0.02 | 0.03 | CCc1cnc(N)nc1-c1nc(-c2ccnc(N)c2F)ccc1O [Example 102, 2′-amino-6-(2-amino-5-ethylpyrimidin-4-yl)-3′-fluoro-[2,4′-bipyridin]-5-ol 3hydrochloride]
– | – | – | – | – | 0.13 | 0.06 | 0.21 | 0.19 | 0.08 | Cc1c(-c2nc(-c3ccnc(N)c3F)ccc2O)nc(N)nc1C1CCN(C(C)C)CC1 [Example 96, 2′-amino-6-(2-amino-6-(1-isopropylpiperidin-4-yl)-5-methylpyrimidin-4-yl)-3′-fluoro-[2,4′-bipyridin]-5-ol 4hydrochloride]
– | – | – | – | – | 0.01 | 0.003 | 0.03 | 0.03 | 0.01 | CN1CCC(c2cc(-c3nc(-c4ccnc(N)c4F)ccc3O)nc(N)n2)CC1 [Example 77, 2′-amino-6-(2-amino-(6-(1-methylpiperidin-4-yl)pyrimidin-4-yl)-3′-fluoro-[2,4′-bipyridin]-5-ol 4hydrochloride]
0.02 | – | 0.05 | 0.02 | 0.01 | – | 0.01 | – | – | – | CCCN1CCC(c2cc(-c3nc(-c4ccnc(N)c4F)ccc3O)nc(N)n2)CC1 [Example 36, 2′-amino-6-(2-amino-6-(1-propylpiperidin-4-yl)pyrimidin-4-yl)-3′-fluoro-[2,4′-bipyridin]-5-ol]
0.07 | 0.04 | 0.13 | 0.11 | 0.07 | – | – | – | – | – | CNc1nc(-c2nc(-c3ccnc(N)c3F)ccc2O)cc(C2CCN(C)CC2)n1 [Example 59, 2′-amino-3′-fluoro-6-(2-(methylamino)-6-(1-methylpiperidin-4-yl)pyrimidin-4-yl)-[2,4′-bipyridin]-5-ol]
– | – | – | – | – | 0.07 | 0.03 | 0.07 | 0.05 | 0.06 | Cc1cnc(N)nc1-c1nc(-c2ccnc(N)c2F)ccc1O [Example 100, 2′-amino-6-(2-amino-5-methylpyrimidin-4-yl)-3′-fluoro-[2,4′-bipyridin]-5-ol 3hydrochloride]
0.02 | – | 0.06 | 0.03 | 0.01 | – | 0.01 | – | – | – | CC(C)N1CCC(c2cc(-c3nc(-c4ccnc(N)c4F)ccc3O)nc(N)n2)CC1 [Example 37, 2′-amino-6-(2-amino-6-(1-isopropylpiperidin-4-yl)pyrimidin-4-yl)-3′-fluoro-[2,4′-bipyridin]-5-ol]
0.21 | 0.14 | 0.41 | 0.25 | 0.15 | – | – | – | – | – | Cc1c(-c2nc(-c3ccnc(N)c3F)ccc2O)nc(N)nc1C1CCCN(C)C1 (stereo not shown) [Example 46]
1.44 | 0.81 | 2.23 | 1.41 | 1.09 | – | – | – | – | – | CCCN1CCCC(c2nc(N)nc(-c3nc(-c4ccnc(N)c4F)ccc3O)c2C)C1 (stereo not shown) [Example 47, 2′-amino-6-(2-amino-5-methyl-6-(1-propylpiperidin-3-yl)pyrimidin-4-yl)-3′-fluoro-[2,4′-bipyridin]-5-ol]
– | – | – | – | – | 0.38 | 0.18 | 0.89 | 0.4 | 0.27 | Cc1c(-c2nc(-c3ccnc(N)c3F)ccc2O)nc(N)nc1C1CCN(C)CC1 [Example 42, 2′-amino-6-(2-amino-5-methyl-6-(1-methylpiperidin-4-yl)pyrimidin-4-yl)-3′-fluoro-[2,4′-bipyridin]-5-ol]
0.15 | 0.09 | 0.4 | 0.16 | 0.1 | – | – | – | – | – | Cc1c(-c2nc(-c3ccnc(N)c3F)ccc2O)nc(N)nc1C1CCN(C(C)C)CC1 [Example 45, 2′-amino-6-(2-amino-6-(1-isopropylpiperidin-4-yl)-5-methylpyrimidin-4-yl)-3′-fluoro-[2,4′-bipyridin]-5-ol]
– | – | – | – | – | 0.11 | 0.04 | 0.39 | 0.19 | 0.1 | CCN1CCCC(c2cc(-c3nc(-c4ccnc(N)c4F)ccc3O)nc(N)n2)C1 (stereo not shown) [Example 90, 2′-amino-6-(2-amino-6-(1-ethylpiperidin-3-yl)pyrimidin-4-yl)-3′-fluoro-[2,4′-bipyridin]-5-ol 4hydrochloride]
0.12 | 0.05 | 0.22 | 0.26 | 0.22 | – | – | – | – | – | Cc1nc(N)nc(-c2nc(-c3ccnc(N)c3F)ccc2O)c1C [Example 60, 2′-amino-6-(2-amino-5,6-dimethylpyrimidin-4-yl)-3′-fluoro-[2,4′-bipyridin]-5-ol]
0.07 | 0.03 | 0.06 | 0.04 | 0.06 | – | – | – | – | – | CC(C)c1cnc(N)nc1-c1nc(-c2ccnc(N)c2F)ccc1O [Example 58]
– | – | – | – | – | 0.23 | 0.15 | 0.52 | 0.48 | 0.32 | CCN1CCC(c2nc(N)nc(-c3nc(-c4ccnc(N)c4F)ccc3O)c2C)CC1 [Example 94, 2′-amino-6-(2-amino-6-(1-ethylpiperidin-4-yl)-5-methylpyrimidin-4-yl)-3′-fluoro-[2,4′-bipyridin]-5-ol 4hydrochloride]
– | – | – | – | – | 0.01 | 0.003 | 0.04 | 0.02 | 0.01 | CCCN1CCC(c2cc(-c3nc(-c4ccnc(N)c4F)ccc3O)nc(N)n2)CC1 [Example 87, 2′-amino-6-(2-amino-6-(1-propylpiperidin-4-yl)pyrimidin-4-yl)-3′-fluoro-[2,4′-bipyridin]-5-ol 4hydrochloride]
– | – | – | – | – | 0.1 | 0.07 | 0.23 | 0.1 | 0.11 | Cc1c(-c2nc(-c3ccnc(N)c3F)ccc2O)nc(N)nc1C1CCN(C)CC1 [Example 93, 2′-amino-6-(2-amino-5-methyl-6-(1-methylpiperidin-4-yl)pyrimidin-4-yl)-3′-fluoro-[2,4′-bipyridin]-5-ol 4hydrochloride]
– | – | – | – | – | 0.12 | 0.06 | 0.23 | 0.29 | 0.23 | Cc1nc(N)nc(-c2nc(-c3ccnc(N)c3F)ccc2O)c1C [Example 101, 2′-amino-6-(2-amino-5,6-dimethylpyrimidin-4-yl)-3′-fluoro-[2,4′-bipyridin]-5-ol 3hydrochloride]
– | 0.02 | 0.04 | – | 0.02 | 0.04 | – | – | 0.06 | – | CCCc1cnc(N)nc1-c1nc(-c2ccnc(N)c2F)ccc1O [Example 57, 2′-amino-6-(2-amino-5-propylpyrimidin-4-yl)-3′-fluoro-[2,4′-bipyridin]-5-ol]
